# In patent US5721210A, “Cyclic cell adhesion modulation compounds” (priority 1995, dated 1998):
# Read-outs that look alike come from different tables or passages of the source. Bridge positions count the residues as written; N and C are the ends. Square brackets hold non-standard residues; d marks the D form. Peptide text beside a SMILES is read from it. * marks the point of attachment. Acetyl(1-adamantyl) = O=C(CC12CC3CC(CC(C3)C1)C2)*; 2Thi = N[C@@H](Cc1cccs1)C(=O)O; 4Amb = NCc1ccc(C(=O)O)cc1
# How the values were obtained:
# [1] = system: U937 cells (fibronectin receptor) adhering to fibronectin-coated wells
# [2] = system: Jurkat T-cells adhering to IL-1 stimulated human umbilical vein endothelial cell monolayers; assay: Jurkat-endothelial cell adhesion assay (Cell Adhesion Inhibition Assay II); format: cell-based; settings: for 10 μM% (percentage inhibition at 10 μM): 10 μM peptide; for 10 μM% (percentage inhibition at 10 μM) / 200 μM% (percentage inhibition at 200 μM): Jurkat cells on IL-1 stimulated endothelial monolayers, 20 min at 37° C.; for 200 μM% (percentage inhibition at 200 μM): 200 μM peptide
# Description: The following assay established the activity of the present compound in inhibiting cell-cell adhesion in a representative in vitro system. This assay measures the adhesive interactions of T-cells to endothelial cell monolayers in the presence of a test compound. The test compound is added in increasing concentrations with T-cells and this is added to endothelial cell monolayers. The plates are incubated, washed and the percentage of attached cells is quantitated.
# Human umbilical vein endothelial cells were purchased from Clonetics (San Diego, Calif.) at passage number 2. The cells were grown on 0.5% porcine skin gelatin pre-coated flasks (Sigma, St. Louis, Mo.) in EGM-UV media (Clonetics, San Diego, Calif.) supplemented with 10% fetal bovine serum. Cells were refed every 2-3 days reaching confluence by day 4 to 6. […] The endothelial cells were not used following passage 14-15.
# The T-cell line Jurkat was obtained from American Type Tissue Culture Collection (Rockville, Md.). The cells were cultured in RPMI media containing 10% fetal calf serum. The cells were washed twice with Hank's Balanced Salt Solution (HBSS) and resuspended in Dulbecco's […] Eagle's Media (DMEM) containing 2.5 mg/ml Human Serum Albumin (HSA). The Jurkat cells (1×10^6 cells/ml) were stained with 10 μg/ml fluorescein diacetate (Sigma, St. Louis, Mo.) in HSSS containing 5% fetal calf serum. The cells were stained for 15 minutes in the dark at room temperature, washed 2 times, and resuspended in a DMEM-HSA solution.
# Confluent endothelial monolayers grown in 96-well tissue culture plates were stimulated for 4 hours at 37° C. with 0.1 ng/ml (^~ 50 U/ml) recombinant IL-1 (Amgen, Thousand Oaks, Calif.). Following this incubation, the monolayers were washed twice with HBSS and 0.1 ml of DMEM-HSA solution was added. Jurkat cells (5×10^5 cells) were combined with appropriate concentrations of a peptide to be tested and 0.1 ml of the Jurkat-peptide mixture were added to the endothelial cell monolayers. Generally, 200 and 10 μM peptide concentrations were tested. […] The plates were placed on ice for 5 minutes to allow for Jurkat cell settling and then incubated at 37° C. for 20 minutes. Following this incubation, the monolayers were washed twice with PBS containing 1 mM calcium chloride and 1 mM magnesium chloride and the plates were read using a Pandex Fluorescence Concentration Analyzer (Baxter, Mundelein, Ill.). Fluorescence in each well was measured as arbitrary fluorescence units and percent adhesion in the absence of a peptide was adjusted to 100% and the percentage adhesion in the presence of the peptide was calculated. Monolayers were also fixed in 3% paraformaldehyde and evaluated microscopically to verify adhesion.
# [3] = read-out: IC50 μM, U937 cells on fibronectin-coated wells, 60 min at 37° C., concentration at which adhesion is inhibited to 50% of control
Molecule,"IC50 [1, 3] [µM]",other results
"N=C(N)NCCC[C@@H]1NC(=O)CNC(=O)C[C@@H](C(N)=O)NC(=O)[C@@H]2CCCN2C(=O)[C@H](CO)NC(=O)[C@H](CC(=O)O)NC(=O)CNC1=O [Peptide 22, G*RGDSPD*-NH2] (GRGDSPD-NH2; lactam N-7)",112,–
"N=C(N)NCCC[C@H](N)C(=O)N[C@H]1CSSC[C@@H](C(=O)O)NC(=O)[C@H](Cc2cccs2)NC(=O)[C@H](CC(=O)O)NC1=O [Peptide 101, RC*D(TA)C*] (H-RCD[2Thi]C-OH; disulfide 2-5)",258,–
N=C(N)NCCC[C@@H]1NC(=O)c2ccc(cc2)CNC(=O)[C@H](CC(=O)O)NC(=O)CNC1=O (cyclo(RGD[4Amb])),–,IC50 [1]: 251 µM
RC*D(TTC)C* [Peptide 122],6,–
"N=C(N)NCCC[C@@H]1NC(=O)CNC(=O)C[C@@H](C(N)=O)NC(=O)[C@@H]2CCCN2C(=O)[C@H](CO)NC(=O)[C@H](CC(=O)O)NC(=O)CNC1=O [Peptide 47, G*RGDSPD*-NH2] (GRGDSPD-NH2; lactam N-7)",134,–
"N=C(N)NCCC[C@@H]1NC(=O)[C@@H](N)CSSC[C@@H](C(=O)O)NC(=O)[C@H](Cc2cccs2)NC(=O)[C@H](CC(=O)O)NC(=O)CNC1=O [Peptide 70, C*RGD(TA)C*] (H-CRGD[2Thi]C-OH; disulfide 1-6)",190,–
(CPA)-RC*D-(3-thioPro)C* [Peptide 110],8,–
"COc1ccc(C[C@@H]2NC(=O)[C@H](CC(=O)O)NC(=O)CNC(=O)[C@H](CCCNC(=N)N)NC(=O)[C@@H](NC(=O)CNC(=O)CNC(=O)CC34CC5CC(CC(C5)C3)C4)CSSC[C@@H](C(N)=O)NC(=O)[C@@H]3CCCN3C2=O)cc1 [Peptide 96, (Ada)-GGC*RGDY(p-OCH3 -Tyr)PC*-NH2] ({Acetyl(1-adamantyl)}-GGCRGDY(Me)PC-NH2; disulfide 3-9)",9,–
(1-FCA)RC*D(TTC)C* [Peptide 132],92,–
(FMOC)-RC*(DTC)C* [Peptide 156],–,10 μM% (percentage inhibition at 10 μM) [2]: 90%; 200 μM% (percentage inhibition at 200 μM) [2]: 32%
(FMOC)-RC*D(TTC)C* [Peptide 166],–,"10 μM% (percentage inhibition at 10 μM) [2]: 18%; 200 μM% (percentage inhibition at 200 μM) [2]: 11%; IC50 ([2]; Jurkat-endothelial cell adhesion, peptides tested at 200, 40, 8, 1.6, 0.32, 0.064 μM): 0.9 µM"
